Assay results from PMC8752738, “A propolis-derived small molecule ameliorates metabolic syndrome in obese mice by targeting the CREB/CRTC2 transcriptional complex” (Nature Communications, 2022).
Several values for one entry are separate records, joined by “and”; a condition that tells them apart may be missing. Equal values may be shown once.

Legend:
[1] = Fasting blood glucose; format: in vivo, mouse; design: Blood glucose of CRTC2KO / blood glucose in CRTC2KO, mean: unit not given here; settings: for blood glucose in CRTC2KO, mean / Blood glucose of CRTC2KO: Figure 9e, 20mg/kg; for blood glucose in CRTC2KO, mean: N 6
[2] = target: T1, HIS-CREB protein (Homo sapiens, UniProt P16220); experiment: Surface plasmon resonance, immobilized HIS-CREB; format: binding; settings: dose-dependent
T1 construct: made in house
Description: BIACORE 100 (GE Healthcare) was employed to perform surface plasmon resonance. Briefly, purified HIS-CREB proteins were captured in the test channel of an NTA-chip (GE, Healthcare) in HEPES buffer (10 mM HEPES, 150 mM NaCl, 3 mM EDTA, pH 7.5). APC solutions with different concentrations were flowed through immobilized HIS-CREB proteins for indicated times, which caused equilibrium response values (RU) to change appropriately. The detected RU values were plotted by time using GraphPad Prism software.

[3] = target: T1, HIS-CREB protein; experiment: Isothermal titration calorimetry; format: binding; settings: HIS-CREB titrated into APC solution, one-site model; read-out: equilibrium dissociation constant (KD) between APC and CREB
Description: Isothermal titration calorimetry was performed using a MicroCal iTC200 calorimeter (Freiburg, Germany). The purified HIS-CREB protein and APC were diluted in buffer (PBS with 500 mM NaCl and 10% glycine, pH 8.0). APC solution was titrated by injection of HIS-CREB. The originally released heat from molecules binding was recorded and analyzed by Origin9 software (Origin Lab) supplied with the instrument.

[4] = test system: LXRα; experiment: Immunoblot of LXRα in insulin-stimulated primary hepatocytes; format: cell-based, mouse; settings: for relative LXRa protein: individual replicates, Supp. Fig.6 b; for relative LXRa protein, mean: N=3
Description: 3 Supplementary Figure 6. APC inhibited transcription induced by half-CRE in the promoters of
5 a) Immunoblot of LXRa protein levels in primary hepatocytes stimulated with insulin (100 nM) for
6 indicated times (0–18 h). One presentative result from three experiments is shown here. Relative
7 LXRa protein level normalized to GAPDH shown as a bar graph (b). Data are represented as
8 mean ± SEM (n=3 per treatment). *, p < 0.05; **, p < 0.01; p values were determined by two-way […]
(1 picture or pasted object on this page, not shown here)

[5] = Body weight and body composition (living NMR) of mice; format: in vivo, mouse; design: AUC of body weight curve, group mean / fat mass of DIO, group mean / Total Area (AUC of body weight curve): unit not given here
Description: All animal experiments were performed according to procedures approved by the Shanghai Institutes for Biological Sciences (SIBS) Animal Care and Use Committee. The db/db mice (stock NO. 000642 C57BL/6J, JACKSON) were purchased from the Jackson laboratory. The 8–10-week-old wild-type C57BL/6 and ICR/JCL mice were purchased from the Shanghai Laboratory Animal Center. Mice were housed in the animal facility at SIBS, in which mice were maintained on a 12-h light/12-h dark cycle for at least 2 weeks before the study and had free access to water and a regular diet (12% fat). For high-fat-induced obesity mice (DIO), high-fat diet (60% fat, Research Diets) was fed to wild-type mice for at least 13–15 weeks and glucose-tolerance tests were performed to confirm the development of diabetes in these mice. After being euthanized, samples were collected. Unless specified, male mice were used for these experiments.
Under the condition of non-anesthesia and non-invasion, the composition of fat and lean in live mice was analyzed by nuclear magnetic resonance (NMR, The Minispec, Bruker) according to the operational manual.

[6] = DIO and db/db mice, i.p. 10 or 20 mg/kg
[7] = DIO mice, APC 10 mg/kg, individual animals

T1 sequence (P16220 whole entry): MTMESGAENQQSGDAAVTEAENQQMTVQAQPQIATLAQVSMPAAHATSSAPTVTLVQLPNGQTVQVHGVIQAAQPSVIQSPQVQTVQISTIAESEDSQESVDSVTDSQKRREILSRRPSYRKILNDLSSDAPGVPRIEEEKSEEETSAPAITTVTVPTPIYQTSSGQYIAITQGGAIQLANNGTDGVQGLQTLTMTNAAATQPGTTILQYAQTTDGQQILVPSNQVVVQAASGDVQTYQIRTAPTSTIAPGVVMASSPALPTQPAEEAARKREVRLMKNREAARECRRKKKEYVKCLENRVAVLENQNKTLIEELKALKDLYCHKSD

CC(C)=CCc1cc(C=CC(=O)O)cc(CC=C(C)C)c1O [APC, 3,5-diprenyl-4-hydroxycinnamic acid]
fasting blood glucose levels ([1]; DIO and db/db mice, i.p. 20 mg/kg): remarkably decreased | blood glucose in CRTC2KO, mean ([1]; CRTC2KO mice, group mean): 3.317 | Blood glucose of CRTC2KO ([1]; CRTC2KO mice, single animals): 3.3 (2×) and 3.8 and 2.6 and 3.1 | blood glucose in CRTC2KO, mean ([1]; WT mice, group mean): 3.65 | Blood glucose of CRTC2KO ([1]; WT mice, single animals): 2.1 and 3.3 and 3.2 (3×) and 4 | FBG in db/db, mean ([1]; Figure 9f, db/db, group mean, n 5): 19.96 mM | Fasting blood glucose ([1]; Figure 9f, db/db, single animals): 13 mM and 22 mM and 26.3 mM and 18.9 mM and 19.6 mM | Fasting blood glucose, mean of column B ([1]; Figure 8d, group mean, n=6, VEH mean 137.4): 91.6 mg/dL | Fasting blood glucose ([1]; Figure 8d, individual mice): 79.2 mg/dL and 84.6 mg/dL and 110.4 mg/dL and 95.4 mg/dL and 102.6 mg/dL and 77.4 mg/dL | fasting blood glucose levels ([1]; db/db mice, one oral delivery 5 mg/kg): little effect | fasting blood glucose in db/db mice, mean ([1]; group mean, n=6): 109.4 mg/dL | effect on fasting blood glucose in Crtc2KO mice ([1]; high-fat diet, oral 20 mg/kg daily, 3 days): abolished | fasting blood glucose in db/db mice ([1]; individual mouse): 141.4 mg/dL and 95.6 mg/dL and 108 mg/dL and 121.6 mg/dL and 83.4 mg/dL and 106.2 mg/dL | binding to immobilized HIS-CREB (SPR) [2]: directly bound | Kd [3]: ~3.2 µM and 3.2 µM | relative LXRa protein ([4]; Insulin 0h): 101.09 and 100.00 and 97.00 | relative LXRa protein, mean ([4]; Insulin 0h): 99.36 | relative LXRa protein ([4]; Insulin 3h): 65.50 and 69.00 and 75.00 | relative LXRa protein, mean ([4]; Insulin 3h): 69.83 | relative LXRa protein, Mean Diff. 3h vs. 0h ([4]; Insulin 3h minus 0h, within APC group): -29.53 | relative LXRa protein ([4]; Insulin 18h): 33.42 and 31.00 and 29.00 | relative LXRa protein, mean ([4]; Insulin 18h): 31.14 | relative LXRa protein, Mean Diff. 18h vs. 0h ([4]; Insulin 18h minus 0h, within APC group): -68.22 | LXRα protein levels ([4]; primary hepatocytes, insulin treatment 18-h): significantly reduced | body weights [5, 6]: reduced | fat mass and fat to lean ratio [5, 6]: significant decrease | Total Area (AUC of body weight curve) ([5]; DIO mice, APC 10 mg/kg ip, individual animals): 120.1 and 149.9 and 145.1 and 147.4 and 144.1 and 156.2 and 141.9 and 151.1 and 155.2 | Body weight, column mean (main column effect) ([5]; DIO mice, APC 10 mg/kg ip, mean over 5 weeks, N=45, in g (unit assumed)): 37.24 | AUC of body weight curve, group mean ([5]; DIO mice, APC 10 mg/kg ip, n=9): 145.7 | Body weight (BW) ([5]; DIO mice, APC 10 mg/kg ip, week 0, individual animals): 35.8 g and 42.4 g and 44.2 g and 42.6 g and 43.4 g and 41.4 g and 42 g and 41.7 g and 47 g | Body weight (BW) ([5]; DIO mice, APC 10 mg/kg ip, week 1, individual animals): 29.5 g and 36.7 g (2×) and 37.7 g and 36.4 g and 42.9 g and 35.2 g and 34.9 g and 39.6 g | Body weight (BW) ([5]; DIO mice, APC 10 mg/kg ip, week 2, individual animals): 29.3 g and 36.8 g and 38.4 g and 36 g (2×) and 36.6 g and 42.8 g and 35.7 g and 39.9 g | Body weight (BW) ([5]; DIO mice, APC 10 mg/kg ip, week 3, individual animals): 29.3 g and 37.3 g and 38.5 g and 36.1 g and 35 g and 42.4 g and 35.3 g and 35.8 g and 39.5 g | Body weight (BW) ([5]; DIO mice, APC 10 mg/kg ip, week 4, individual animals): 29.7 g and 37.3 g and 38.4 g and 36.7 g and 33.7 g and 40.9 g and 33.3 g and 42 g and 37.2 g | Body weight (BW) ([5]; DIO mice, APC 10 mg/kg ip, week 5, individual animals): 34.01 g and 40.28 g and 41.99 g and 40.47 g and 41.23 g and 39.33 g and 39.9 g and 39.615 g and 44.65 g | Fat/lean ratio [5, 7]: 0.4757 and 0.5256 and 0.2029 and 0.4176 and 0.1933 and 0.2387 and 0.2853 and 0.2798 | fat mass of DIO [5, 7]: 10.86 g and 11.25 g and 7.23 g and 10.98 g and 11.28 g and 7.03 g and 6.72 g and 7.86 g | Fat/lean ratio, group mean ([5]; DIO mice, APC 10 mg/kg, n=8): 0.3274
